Measured values published in ChEMBL document CHEMBL1201862, “PubChem BioAssay data set” (2004).
Activity calls are given as the source filed them.

Experiments:
[1] = Trypanosoma cruzi growth suppression in host cells – NIH3T3 host cells, beta-gal luminescence, confirmation (AID 2044); format: functional, cell-based;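 further: intracellular parasites grown in NIH/3T3 mouse fibroblasts as host cells; luminescent beta-galactosidase reporter signal from transgenic T. cruzi replicating inside host cells; inhibitors lower the luminescence signal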
[2] = loss of viability in HepG2 cells – cell-based, CellTiter-Glo, cherry-picked, cytotoxicity control for Shn3 inhibitor project, dose response (AID 624134); format: functional
[3] = Luminescence Cell-Based Dose Response HTS to Identify Inhibitors of 5'UTR Stem-Loop Driven Prion Protein mRNA Translation in H4 Neuroglioblastoma Cells. [Related pubchem assays: 1827 (Project Summary), 1813 (Primary HTS)]; format: functional
[4] = reduction of Shn3 3'UTR-driven luciferase in osteoblasts – cell-based, Clone20 osteoblasts, firefly luciferase, cherry-picked, dose response (AID 624132); format: functional;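 further: firefly luciferase luminescence from reporter carrying the Shn3 3'UTR in osteoblasts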
[5] = luciferase reporter signal suppression in cells – H4 neuroglioma cells, luminescence, dose response (AID 1990); format: functional, cell-based
[6] = alpha-synuclein stem-loop luciferase translation blockers – H4 neuroglioma cells, luminescence, confirmation (AID 1988); format: functional, cell-based
[7] = non-specific 3'UTR reporter inhibition in Clone20-Shn3RL – cell-based, Renilla luciferase, cherry-picked, counter-screen for Shn3 inhibitor project, dose response (AID 624133); format: functional
[8] = general mammalian cell viability loss – inhibitor set, cherry-pick, set 2, cytotoxicity control for miR-122 modulator project, dose response (AID 720697); format: functional, cell-based
[9] = NIH3T3 cell viability loss – ATP luminescence, mouse fibroblasts, counter-screen, dose response (AID 2010); format: functional, cell-based;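 further: cells exposed to compound for about 90 hours before reading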
[10] = general mammalian cell viability loss – activator set, cherry-pick, cytotoxicity control for miR-122 modulator project, dose response (AID 720690); format: functional, cell-based;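 further: HEK293T human cells scored for general mammalian cytotoxicity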
[11] = molecular target: T1, COUP transcription factor 2 (Homo sapiens, UniProt P24468); assay: Luminescence-based cell-based high throughput dose response assay to identify inhibitors of COUP-TFII (NR2F2).; format: functional;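 further: HEK293 cells transiently cotransfected with COUP-TFII expression vector and reporter; luciferase reporter luminescence driven by COUP-TFII from the pX2-168 reporter plasmid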
T1 sequence (P24468 whole entry): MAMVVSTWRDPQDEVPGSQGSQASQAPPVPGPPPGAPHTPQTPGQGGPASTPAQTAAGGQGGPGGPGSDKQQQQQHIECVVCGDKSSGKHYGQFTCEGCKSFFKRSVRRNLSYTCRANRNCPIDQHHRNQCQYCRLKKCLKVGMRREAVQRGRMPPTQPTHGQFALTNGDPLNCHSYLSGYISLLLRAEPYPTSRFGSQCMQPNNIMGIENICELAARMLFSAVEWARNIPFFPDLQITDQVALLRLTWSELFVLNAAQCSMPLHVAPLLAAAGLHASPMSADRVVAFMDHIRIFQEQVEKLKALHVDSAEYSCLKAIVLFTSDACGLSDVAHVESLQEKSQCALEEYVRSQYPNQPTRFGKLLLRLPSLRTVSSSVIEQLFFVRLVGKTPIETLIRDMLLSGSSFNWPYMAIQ

[12] = molecular target: T2, Caspase-6 (Homo sapiens, UniProt P55212); assay: inhibition of CASP6 peptide cleavage – biochemical, VEID-R110 fluorescence, cherry-pick, dose response (AID 720632)
T2 sequence (P55212 whole entry): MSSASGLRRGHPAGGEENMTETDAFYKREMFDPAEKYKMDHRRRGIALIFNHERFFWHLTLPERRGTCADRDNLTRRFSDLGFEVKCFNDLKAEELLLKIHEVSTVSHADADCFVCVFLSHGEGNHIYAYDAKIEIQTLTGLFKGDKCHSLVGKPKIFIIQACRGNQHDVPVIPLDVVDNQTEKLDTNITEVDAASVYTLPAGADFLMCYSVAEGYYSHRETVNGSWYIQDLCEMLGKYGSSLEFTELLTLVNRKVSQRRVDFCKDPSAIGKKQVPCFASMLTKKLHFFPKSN

[13] = molecular target: FAD-linked sulfhydryl oxidase ALR (Homo sapiens, UniProt P55789); assay: ALR-catalysed DTT oxidation blockers – biochemical, H2O2 detection, luminescence, cherry-pick, dose response (AID 493248)
[14] = molecular target: T3, Histone-lysine N-methyltransferase NSD2 (Homo sapiens, UniProt O96028); format: biochemical
T3 sequence (O96028 whole entry): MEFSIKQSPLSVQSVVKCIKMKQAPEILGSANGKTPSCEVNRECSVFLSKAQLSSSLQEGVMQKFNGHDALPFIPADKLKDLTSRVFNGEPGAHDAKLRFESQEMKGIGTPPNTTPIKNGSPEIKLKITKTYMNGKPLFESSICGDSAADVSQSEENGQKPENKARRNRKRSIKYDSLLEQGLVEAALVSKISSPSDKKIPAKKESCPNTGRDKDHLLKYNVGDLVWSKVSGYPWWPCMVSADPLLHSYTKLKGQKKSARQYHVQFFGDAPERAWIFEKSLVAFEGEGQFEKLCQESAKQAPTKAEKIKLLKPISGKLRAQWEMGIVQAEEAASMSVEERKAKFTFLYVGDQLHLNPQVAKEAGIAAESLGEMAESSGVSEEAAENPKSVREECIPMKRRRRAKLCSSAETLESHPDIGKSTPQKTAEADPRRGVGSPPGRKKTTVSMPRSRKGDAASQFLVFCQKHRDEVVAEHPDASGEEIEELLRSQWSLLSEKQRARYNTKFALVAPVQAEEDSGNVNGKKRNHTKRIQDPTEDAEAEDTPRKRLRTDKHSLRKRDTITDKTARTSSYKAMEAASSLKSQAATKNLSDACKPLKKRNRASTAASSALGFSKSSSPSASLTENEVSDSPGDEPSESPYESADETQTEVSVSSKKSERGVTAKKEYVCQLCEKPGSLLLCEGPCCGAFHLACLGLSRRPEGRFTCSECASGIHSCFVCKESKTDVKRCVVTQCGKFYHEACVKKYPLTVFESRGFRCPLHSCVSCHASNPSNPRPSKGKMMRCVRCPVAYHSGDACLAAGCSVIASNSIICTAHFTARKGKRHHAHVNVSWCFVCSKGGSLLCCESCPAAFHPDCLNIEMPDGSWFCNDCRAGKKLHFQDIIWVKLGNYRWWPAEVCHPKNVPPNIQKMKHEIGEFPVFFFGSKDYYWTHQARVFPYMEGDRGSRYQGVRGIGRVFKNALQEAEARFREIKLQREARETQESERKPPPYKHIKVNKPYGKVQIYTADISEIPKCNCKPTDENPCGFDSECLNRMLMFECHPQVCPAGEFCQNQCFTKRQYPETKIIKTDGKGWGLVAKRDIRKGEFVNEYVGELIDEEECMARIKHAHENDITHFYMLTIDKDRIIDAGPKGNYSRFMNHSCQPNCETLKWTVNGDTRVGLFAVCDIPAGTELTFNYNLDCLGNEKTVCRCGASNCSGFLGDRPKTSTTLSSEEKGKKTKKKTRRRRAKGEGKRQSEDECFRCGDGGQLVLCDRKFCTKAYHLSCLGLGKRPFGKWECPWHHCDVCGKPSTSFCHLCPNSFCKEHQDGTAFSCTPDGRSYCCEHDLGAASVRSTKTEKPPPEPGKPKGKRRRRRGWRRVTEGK

[15] = molecular target: T4, Carboxy-terminal domain RNA polymerase II polypeptide A small phosphatase 1 (Homo sapiens, UniProt Q9GZU7); assay: CTDSP1 inhibitors, concentration-response, biochemical, absorbance readout, ultra-high-throughput screen actives (AID 540297); format: functional
T4 sequence (Q9GZU7 whole entry): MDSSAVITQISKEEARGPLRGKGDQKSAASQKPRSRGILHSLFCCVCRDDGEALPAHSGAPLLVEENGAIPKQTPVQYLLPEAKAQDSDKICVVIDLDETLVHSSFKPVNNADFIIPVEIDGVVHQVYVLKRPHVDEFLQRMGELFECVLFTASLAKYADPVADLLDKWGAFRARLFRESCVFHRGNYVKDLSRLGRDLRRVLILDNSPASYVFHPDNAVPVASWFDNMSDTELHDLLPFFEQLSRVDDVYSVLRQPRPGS

[16] = molecular target: T5, fMet-Leu-Phe receptor (Homo sapiens, UniProt P21462); assay: formyl peptide receptor binders – dose response (AID 519); format: functional
T5 sequence (P21462 whole entry): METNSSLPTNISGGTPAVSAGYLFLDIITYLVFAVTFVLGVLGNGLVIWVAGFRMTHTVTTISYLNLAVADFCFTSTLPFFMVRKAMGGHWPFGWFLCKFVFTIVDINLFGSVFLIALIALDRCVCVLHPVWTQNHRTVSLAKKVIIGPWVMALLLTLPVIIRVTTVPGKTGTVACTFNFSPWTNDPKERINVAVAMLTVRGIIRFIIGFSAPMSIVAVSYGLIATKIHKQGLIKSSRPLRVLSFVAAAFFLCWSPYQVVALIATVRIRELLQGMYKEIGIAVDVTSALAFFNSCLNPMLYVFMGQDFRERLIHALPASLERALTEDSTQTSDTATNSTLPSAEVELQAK

[17] = HEK-293T viability loss after treatment – luminescence, T-cell screen hits, cytotoxicity control for TCR NF-kB inhibitor project, dose response (AID 489026); format: functional, cell-based;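 further: cells exposed to compound about 14 hours before the viability readout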
[18] = HIV-1 AD8 envelope cell-cell fusion blockers – cherry-pick, dose response (AID 652062); format: functional, cell-based;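 further: luciferase signal from cell-cell fusion driven by HIV-1 clade B AD8 Env; potency is for inhibitors of fusion seen as a drop in luminescence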
[19] = microbe, parasite or virus in culture; format: functional; details: Mycobacterium tuberculosis
[20] = viability loss in CEM21 cells – cell-based, CellTiter-Glo luminescence, cherry-picked, cytotoxicity control for viral fusion inhibitor project, dose response (AID 652042); format: functional;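 further: potency for signal decrease meaning cytotoxicity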
[21] = molecular target: T6, Fatty acid synthase (Homo sapiens, UniProt P49327); assay: inhibition of human FAS-TE enzyme activity – biochemical, kinetic fluorescence intensity, dose response (AID 624326); format: functional;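 further: rate of fluorescence rise from hydrolysis of a fluorogenic O-methyl fluorescein ester substrate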
[22] = molecular target: T6, Fatty acid synthase; assay: inhibition of human FAS-TE enzyme activity – biochemical, endpoint fluorescence intensity, uHTS hits, dose response (AID 624327); format: functional;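 further: fluorescence from hydrolysis of an O-methyl fluorescein acyl ester substrate by the enzyme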
[23] = tested on: BJ; assay: BJ-TERT-LT-ST fibroblast viability loss – cell-based, RAS-independent, luminescence, dose response (AID 1935); format: functional; details: Homo sapiens;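 further: BJ fibroblasts immortalized with TERT plus LT and ST oncogenes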
[24] = general cell-killing toxicity readout – plate reader, dry powder samples, cytotoxicity control for PAX8 inhibitor project, dose response (AID 743021); format: functional, cell-based
[25] = tested on: BJ; assay: cells; format: functional, cell-based; details: Homo sapiens
[26] = tested on: BJ; assay: growth inhibition of engineered Ras-driven BJ cells – cell-based, alamar blue fluorescence, cherrypicked samples, dose response (AID 2631); format: functional; details: Homo sapiens;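 further: confirmatory dose-response assay in RAS-dependent BJ fibroblasts engineered with TERT, LT and ST, with cytotoxicity read by fluorescence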
[27] = activation of miR-122 Renilla sensor silencing – cell-based, Huh7 psiCHECK-miR122, Renilla luciferase, cherry-picked, dose response (AID 651956); format: functional;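 further: huh7 hepatoma cells stably carrying a psiCHECK-2 miR-122 sensor plasmid; renilla luciferase signal reporting endogenous miR-122 activity after 48 h compound exposure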
[28] = tested on: BJ; assay: BJ-TERT fibroblast viability loss – cell-based, RAS-independent, luminescence, dose response (AID 1933); format: functional; details: Homo sapiens
[29] = DRD fibroblast viability loss – cell-based, non-viral oncogenic, luminescence, dose response (AID 1934); format: functional; details: Homo sapiens
[30] = molecular target: Paired box protein Pax-8 (Homo sapiens, UniProt Q06710); assay: PAX8 transcriptional activity inhibition in RMG-I – RMG-I cells, luciferase, cherry-pick, dose response (AID 687027); format: functional, cell-based;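 further: luciferase reporter driven by Pax8 target thyroperoxidase promoter measured by SteadyGlo luminescence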
Chain of Paired box protein Pax-8 (Q06710 whole entry): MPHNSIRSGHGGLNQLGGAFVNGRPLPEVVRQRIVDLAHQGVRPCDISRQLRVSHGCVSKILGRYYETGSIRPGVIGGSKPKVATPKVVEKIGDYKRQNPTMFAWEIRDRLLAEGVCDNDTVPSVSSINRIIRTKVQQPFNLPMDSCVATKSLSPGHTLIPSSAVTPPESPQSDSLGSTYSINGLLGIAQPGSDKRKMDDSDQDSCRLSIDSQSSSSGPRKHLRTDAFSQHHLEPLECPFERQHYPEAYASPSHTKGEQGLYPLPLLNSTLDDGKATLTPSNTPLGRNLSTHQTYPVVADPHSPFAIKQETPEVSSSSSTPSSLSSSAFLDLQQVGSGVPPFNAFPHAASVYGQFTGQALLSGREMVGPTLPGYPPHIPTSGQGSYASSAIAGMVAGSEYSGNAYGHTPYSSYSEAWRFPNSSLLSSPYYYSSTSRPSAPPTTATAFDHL

T6 sequence (P49327 whole entry): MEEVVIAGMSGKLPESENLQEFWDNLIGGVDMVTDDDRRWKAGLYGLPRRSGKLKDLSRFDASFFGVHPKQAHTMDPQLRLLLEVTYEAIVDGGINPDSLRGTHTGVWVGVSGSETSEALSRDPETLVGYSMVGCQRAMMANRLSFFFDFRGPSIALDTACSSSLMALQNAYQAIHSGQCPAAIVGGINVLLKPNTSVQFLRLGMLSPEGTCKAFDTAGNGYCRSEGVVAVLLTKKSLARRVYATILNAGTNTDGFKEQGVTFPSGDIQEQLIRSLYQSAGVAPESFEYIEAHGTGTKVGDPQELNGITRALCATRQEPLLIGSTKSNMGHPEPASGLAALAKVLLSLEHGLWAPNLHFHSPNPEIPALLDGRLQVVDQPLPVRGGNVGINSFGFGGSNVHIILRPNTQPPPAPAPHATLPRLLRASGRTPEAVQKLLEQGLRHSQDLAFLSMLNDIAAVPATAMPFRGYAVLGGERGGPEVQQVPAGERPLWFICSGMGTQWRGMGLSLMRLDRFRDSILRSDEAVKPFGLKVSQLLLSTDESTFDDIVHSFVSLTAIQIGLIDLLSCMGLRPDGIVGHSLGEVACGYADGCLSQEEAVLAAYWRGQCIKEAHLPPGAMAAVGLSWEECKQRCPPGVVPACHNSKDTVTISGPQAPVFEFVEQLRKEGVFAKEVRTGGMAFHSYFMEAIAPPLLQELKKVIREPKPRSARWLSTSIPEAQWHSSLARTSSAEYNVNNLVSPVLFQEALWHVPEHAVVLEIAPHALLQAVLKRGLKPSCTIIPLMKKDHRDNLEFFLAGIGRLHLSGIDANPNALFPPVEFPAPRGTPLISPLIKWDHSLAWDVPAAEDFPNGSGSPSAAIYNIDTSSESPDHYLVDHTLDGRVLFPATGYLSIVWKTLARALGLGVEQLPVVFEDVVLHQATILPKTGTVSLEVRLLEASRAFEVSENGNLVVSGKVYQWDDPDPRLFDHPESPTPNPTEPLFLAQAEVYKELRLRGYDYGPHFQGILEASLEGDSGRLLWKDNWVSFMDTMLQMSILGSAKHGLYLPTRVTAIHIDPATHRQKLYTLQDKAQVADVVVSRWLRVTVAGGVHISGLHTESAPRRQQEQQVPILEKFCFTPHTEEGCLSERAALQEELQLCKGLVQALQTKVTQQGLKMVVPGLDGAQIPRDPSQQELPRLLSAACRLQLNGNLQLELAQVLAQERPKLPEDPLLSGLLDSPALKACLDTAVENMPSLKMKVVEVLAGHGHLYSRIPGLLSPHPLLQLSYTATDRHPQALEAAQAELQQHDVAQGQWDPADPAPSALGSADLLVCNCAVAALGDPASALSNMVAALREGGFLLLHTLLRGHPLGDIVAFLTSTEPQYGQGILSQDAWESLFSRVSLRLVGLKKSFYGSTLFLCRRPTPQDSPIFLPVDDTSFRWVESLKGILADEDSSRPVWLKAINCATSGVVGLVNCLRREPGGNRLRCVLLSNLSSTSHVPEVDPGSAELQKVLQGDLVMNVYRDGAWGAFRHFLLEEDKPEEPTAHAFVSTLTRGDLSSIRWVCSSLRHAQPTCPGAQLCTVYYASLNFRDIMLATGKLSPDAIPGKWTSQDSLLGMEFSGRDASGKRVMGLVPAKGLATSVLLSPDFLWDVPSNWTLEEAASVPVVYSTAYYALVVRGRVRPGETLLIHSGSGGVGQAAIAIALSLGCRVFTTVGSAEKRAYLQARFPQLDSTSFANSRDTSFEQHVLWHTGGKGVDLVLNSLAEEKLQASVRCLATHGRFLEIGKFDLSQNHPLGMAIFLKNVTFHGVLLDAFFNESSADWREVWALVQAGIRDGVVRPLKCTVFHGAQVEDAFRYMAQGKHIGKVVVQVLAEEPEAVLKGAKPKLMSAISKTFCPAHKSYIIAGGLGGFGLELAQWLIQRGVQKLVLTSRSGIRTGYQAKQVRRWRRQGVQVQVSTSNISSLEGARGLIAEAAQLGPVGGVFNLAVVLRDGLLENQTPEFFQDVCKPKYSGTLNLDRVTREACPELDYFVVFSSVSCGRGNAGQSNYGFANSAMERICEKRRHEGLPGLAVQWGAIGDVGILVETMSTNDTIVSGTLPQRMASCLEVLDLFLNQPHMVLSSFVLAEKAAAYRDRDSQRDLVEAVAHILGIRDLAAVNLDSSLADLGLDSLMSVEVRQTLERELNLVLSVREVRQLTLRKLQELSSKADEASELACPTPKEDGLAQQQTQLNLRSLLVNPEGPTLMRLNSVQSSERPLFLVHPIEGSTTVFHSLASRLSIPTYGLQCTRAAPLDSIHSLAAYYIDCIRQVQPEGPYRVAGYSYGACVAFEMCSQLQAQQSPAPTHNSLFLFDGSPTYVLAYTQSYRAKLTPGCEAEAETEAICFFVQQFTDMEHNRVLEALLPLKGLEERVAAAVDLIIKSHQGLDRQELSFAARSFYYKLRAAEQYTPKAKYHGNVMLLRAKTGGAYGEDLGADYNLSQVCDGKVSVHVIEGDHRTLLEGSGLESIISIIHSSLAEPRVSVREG
Chain of FAD-linked sulfhydryl oxidase ALR (P55789 whole entry): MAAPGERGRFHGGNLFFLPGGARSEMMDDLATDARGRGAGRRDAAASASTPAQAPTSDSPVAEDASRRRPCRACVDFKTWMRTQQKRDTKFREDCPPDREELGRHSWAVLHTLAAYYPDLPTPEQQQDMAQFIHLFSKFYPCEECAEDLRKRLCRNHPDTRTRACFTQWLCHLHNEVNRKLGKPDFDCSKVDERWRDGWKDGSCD

N#Cc1ccc(NC(=O)Nc2ccc(Oc3ccc(NC(=O)Nc4ccc(C#N)cc4)cc3)cc2)cc1
EC50 [1]: 1.01 µM (active) | AC50 [2]: 6.46 µM (active) | EC50 [3]: 10.1 µM (active) | AC50 [4]: 2.68 µM (active) | EC50 [5]: > 120 µM (not active) | EC50 [6]: 8.67 µM (active) | AC50 [7]: 13.1 µM (active) | AC50 [8]: 5.02 µM (active) | EC50 [9]: > 60 µM (not active) | AC50 [10]: 6.66 µM (active)

CCOC(=O)N1CCC(NC(=O)C2CCCN(Cc3nc(-c4ccc(CC)cc4)oc3C)C2)CC1 (stereo unspecified)
IC50 [11]: 9.26 µM (active)

C=CCc1cc(/C=C/c2nc(O)c([N+](=O)[O-])c(O)n2)cc(OC)c1O
AC50 [12]: 9.31 µM (active) | AC50 [13]: 0.469 µM (active) | AC50 [14]: > 20 µM (inactive) | IC50 [15]: 19.3 µM (active)

CCOc1ccccc1NC(=O)CSc1nccn1-c1ccccc1
Ki [16]: > 66.7 µM (inactive)

CC1Cc2cc(-c3csc(NC(=O)Cc4cccs4)n3)ccc2N1S(C)(=O)=O (stereo unspecified)
IC50 [17]: 38 µM (inactive) | AC50 [18]: 5.65 µM (active) | CC50 [19]: > 40 µM (active) | IC50 [11]: 3.11 µM (active) | AC50 [20]: 54.5 µM (active) | IC50 [21]: 7.01 µM (active) | IC50 [22]: 14.1 µM (active)

O=C1Nc2ccccc2/C1=C1/SC(=S)N(CC2CCCO2)C1=O (stereo unspecified)
Ki [16]: > 66.7 µM (inactive)

COc1ccccc1C1C(C(=O)c2ccccc2)=C(O)C(=O)N1CC(C)O (stereo unspecified)
Ki [16]: 24.6 µM (inactive)

CCOc1cc(C(=O)O)ccc1OCCOc1ccccc1
AC50 [12]: 34 µM (active)

Cc1onc(C(=O)N2CCN(C(c3ccccc3)c3ccccc3)CC2)c1[N+](=O)[O-]
EC50 [23]: > 150 µM (not active) | AC50 [24]: 3.3 µM (active) | EC50 [25]: 5.65 µM (active) | EC50 [26]: 6.63 µM (active) | AC50 [27]: 66.8 µM (active) | AC50 [8]: 10.8 µM (active) | AC50 [10]: 3.14 µM (active) | EC50 [28]: 0.659 µM (inconclusive) | EC50 [29]: 4.77 µM (active) | AC50 [30]: 5.28 µM (active)
